Laboratory results published in ChEMBL document CHEMBL4334533, “Design, synthesis, and validation of novel nitrogen-based chalcone analogs against triple negative breast cancer” (Eur J Med Chem, 2020).
Activity calls are given as the source filed them. The calls are words filed in the database; no cut-off is given here.

Assays:
MDA-MB-231 [1] = test: Antimigratory activity in human MDA-MB-231 cells assessed as inhibition of cell motility after 24 hrs by microscopic analysis; type: functional, cell-based; details: MDA-MB-231, 24 h
MDA-MB-231 [2] = test: Antimigratory activity in human MDA-MB-231 cells assessed as wound diameter at 5 uM measured after 24 hrs by microscopic analysis; type: functional, cell-based
MDA-MB-231 [3] = test: Induction of morphological changes in human MDA-MB-231 cells assessed as mesenchymal-epithelial transition at 10 uM by inverted microscopic analysis; type: functional, cell-based
MDA-MB-231 [4] = test: Growth inhibition in human MDA-MB-231 cells at 10 uM after 48 hrs by MTT assay; type: functional, cell-based
[5] = Selectivity index, ratio of LD50 for E6/E7 immortalized human HNME cells to IC50 for human MDA-MB-468 cells
MCF7 [6] = test: Induction of morphological changes in human MCF7 cells assessed as mesenchymal-epithelial transition at 10 uM by inverted microscopic analysis; type: functional, cell-based
[7] = Cytotoxicity against E6/E7 immortalized human HNME cells assessed as inhibition of cell growth measured after 48 hrs by microplate reader analysis; type: cell-based; details: read-out: LD50
MCF7 [8] = test: Growth inhibition in human MCF7 cells at 10 uM after 48 hrs by MTT assay; type: functional, cell-based
Chorioallantoic membrane = test: Antiangiogenic activity in Leghorn chicken fertilized egg chorioallantoic membrane assessed as reduction in number of blood vessels at 4 ug measured after 4 days by microscopic analysis; type: functional, tissue-based; details: Gallus gallus
MDA-MB-231 [9] = test: Inhibition of anchorage-independent colony formation in human MDA-MB-231 cells at 5 uM measured upto 21 days by soft agar colony formation assay; type: functional, cell-based
MDA-MB-231 [10] = test: Antiinvasive activity in human MDA-MB-231 cells assessed as reduction in 10% FBS-induced cell invasion at 10 uM by crystal violet staining based matrigel assay relative to control; type: functional; parameters: scale not given: the % may be the effect or the level left
MCF7 [11] = test: Antiinvasive activity in human MCF7 cells assessed as reduction in 10% FBS-induced cell invasion at 10 uM by crystal violet staining based matrigel assay relative to control; type: functional
MDA-MB-468 [12] = test: Induction of morphological changes in human MDA-MB-468 cells assessed as mesenchymal-epithelial transition at 10 uM by inverted microscopic analysis; type: functional, cell-based
MCF7 [13] = test: Antiproliferative activity against human MCF7 cells assessed as inhibition of cell growth measured after 48 hrs by microplate reader analysis; type: functional, cell-based; details: MCF7, 48 h
MCF7 [14] = test: Inhibition of anchorage-independent colony formation in human MCF7 cells at 5 uM measured upto 21 days by soft agar colony formation assay; type: functional, cell-based
MDA-MB-468 [15] = test: Antiproliferative activity against human MDA-MB-468 cells assessed as inhibition of cell growth measured after 48 hrs by microplate reader analysis; type: functional, cell-based; details: MDA-MB-468, 48 h
MDA-MB-468 [16] = test: Antiinvasive activity in human MDA-MB-468 cells assessed as reduction in 10% FBS-induced cell invasion at 10 uM by crystal violet staining based matrigel assay relative to control; type: functional
[17] = Selectivity index, ratio of LD50 for E6/E7 immortalized human HNME cells to IC50 for human MCF7 cells
MDA-MB-468 [18] = test: Inhibition of anchorage-independent colony formation in human MDA-MB-468 cells at 5 uM measured upto 21 days by soft agar colony formation assay; type: functional, cell-based
[19] = Selectivity index, ratio of LD50 for E6/E7 immortalized human HNME cells to IC50 for human MDA-MB-231 cells
MDA-MB-468 [20] = test: Cell cycle arrest in human MDA-MB-468 cells assessed as accumulation at S phase at 10 uM measured after 48 hrs by propidium iodide staining-based flow cytometric analysis relative to control; type: functional
MDA-MB-231 [21] = test: Cell cycle arrest in human MDA-MB-231 cells assessed as accumulation at S phase at 10 uM measured after 48 hrs by propidium iodide staining-based flow cytometric analysis relative to control; type: functional
MDA-MB-231 [22] = test: Antiproliferative activity against human MDA-MB-231 cells assessed as inhibition of cell growth measured after 48 hrs by microplate reader analysis; type: functional, cell-based; details: MDA-MB-231, 48 h

Q: Which IC50 (MDA-MB-231 [1]) does the source give for `O=C(/C=C/c1ccc(N2CCCC2)cc1)c1ccc2c(c1)OCO2` here?
A: 5.71 µM

Q: What about the Activity (MDA-MB-231 [2]) of the same compound?
A: Active

Q: With `CS(=O)(=O)c1ccc(C(=O)/C=C/c2ccc(N(CCCl)CCCl)cc2)cc1` as the compound, how does the Activity (MDA-MB-231 [3]) read?
A: Active

Q: What about the “growth inhibition (GI)” value (MDA-MB-231 [4]) of the same compound?
A: Active

Q: And the “Ratio LD50/IC50” value [5]?
A: 2.21

Q: And the Activity (MCF7 [6])?
A: Active

Q: What about the CC50 at 48 h [7] of the same compound?
A: 29.4 µM

Q: And the “growth inhibition (GI)” value (MCF7 [8])?
A: Active

Q: And the Activity (Chorioallantoic membrane)?
A: Active

Q: What about the inhibition (MDA-MB-231 [9]) of the same compound?
A: Active

Q: And the Activity (MDA-MB-231 [10])?
A: 80%

Q: What about the Activity (MCF7 [11]) of the same compound?
A: Active

Q: What about the Activity (MDA-MB-468 [12]) of the same compound?
A: Active

Q: What about the IC50 (MCF7 [13]) of the same compound?
A: 14.1 µM

Q: And the IC50 (MDA-MB-231 [1])?
A: 6.14 µM

Q: And the “colony formation inhibition (activity call)” value (MCF7 [14])?
A: Active

Q: And the IC50 (MDA-MB-468 [15])?
A: 13.3 µM

Q: And the Activity (MDA-MB-468 [16])?
A: Active

Q: And the “Ratio LD50/IC50” value [17]?
A: 2.08

Q: And the “colony formation inhibition (active/inactive)” value (MDA-MB-468 [18])?
A: Active

Q: And the “Ratio LD50/IC50” value [19]?
A: 3.95

Q: What about the Activity (MDA-MB-468 [20]) of the same compound?
A: 46.8%

Q: What about the Activity (MDA-MB-231 [21]) of the same compound?
A: 28.7%

Q: What about the Activity (MDA-MB-231 [2]) of the same compound?
A: Active

Q: What about the IC50 (MDA-MB-231 [22]) of the same compound?
A: 7.44 µM

Q: Which results are given for `COc1cc2c(c(OC)c1OC)-c1ccc(OC)c(=O)cc1[C@@H](NC(C)=O)CC2`?
A: inhibition (MDA-MB-231 [9]): Active; inhibition (MCF7 [14]): Active; colony formation inhibition (active/inactive) (MDA-MB-468 [18]): Active; Activity (MDA-MB-231 [2]): Active

Q: For `COc1cccc(C(=O)/C=C/c2ccc(N3CCCC3)cc2)c1`, which IC50 (MDA-MB-231 [1]) is on record?
A: 1.99 µM

Q: And the Activity (MDA-MB-231 [2])?
A: Active
